Tests used:
Conditions in all cases: 72 h
Calu-3 [1] = experiment: cell viability relative to DMSO; higher = less toxic
HepG2 [2] = experiment: as above
Vero E6 [3] = experiment: as above
U2OS [4] = experiment: as above
Caco-2 [5] = experiment: as above
Calu-3 [6] = experiment: drug sensitivity score (DSS) for viability; higher = more toxic; extreme values may be limits of the assay
HepG2 [7] = experiment: as above
Vero E6 [8] = experiment: as above
U2OS [9] = experiment: as above
Caco-2 [10] = experiment: as above
Vero E6 [11] = experiment: relative viability EC50 (midpoint between 100% and the lowest measured viability); higher = less toxic
U2OS [12] = experiment: as above
Calu-3 [13] = experiment: as above
HepG2 [14] = experiment: as above

| SMILES | cell viability (Calu-3 [1]; 1 nM) [%] | cell viability (Calu-3 [1]; 10 nM) [%] | cell viability (Calu-3 [1]; 100 nM) [%] | cell viability (Calu-3 [1]; 1000 nM) [%] | cell viability (Calu-3 [1]; 10000 nM) [%] | cell viability (HepG2 [2]; 1 nM) [%] | cell viability (HepG2 [2]; 10 nM) [%] | cell viability (HepG2 [2]; 100 nM) [%] | cell viability (HepG2 [2]; 1000 nM) [%] | cell viability (HepG2 [2]; 10000 nM) [%] | cell viability (Vero E6 [3]; 1 nM) [%] | cell viability (Vero E6 [3]; 10 nM) [%] | cell viability (Vero E6 [3]; 100 nM) [%] | cell viability (Vero E6 [3]; 1000 nM) [%] | cell viability (Vero E6 [3]; 10000 nM) [%] | cell viability (U2OS [4]; 1 nM) [%] | cell viability (U2OS [4]; 10 nM) [%] | cell viability (U2OS [4]; 100 nM) [%] | cell viability (U2OS [4]; 1000 nM) [%] | cell viability (U2OS [4]; 10000 nM) [%] | cell viability (Caco-2 [5]; 1 nM) [%] | cell viability (Caco-2 [5]; 10 nM) [%] | cell viability (Caco-2 [5]; 100 nM) [%] | cell viability (Caco-2 [5]; 1000 nM) [%] | cell viability (Caco-2 [5]; 10000 nM) [%] | drug sensitivity score (Calu-3 [6]) | drug sensitivity score (HepG2 [7]) | drug sensitivity score (Vero E6 [8]) | drug sensitivity score (U2OS [9]) | drug sensitivity score (Caco-2 [10]) | relative viability EC50 (Vero E6 [11]) [µM] | relative viability EC50 (U2OS [12]) [µM] | relative viability EC50 (Calu-3 [13]) [µM] | relative viability EC50 (HepG2 [14]) [µM] |
| --- | --- | --- | --- | --- | --- | --- | --- | --- | --- | --- | --- | --- | --- | --- | --- | --- | --- | --- | --- | --- | --- | --- | --- | --- | --- | --- | --- | --- | --- | --- | --- | --- | --- | --- |
| OCCNC1CCCc2c1[nH]c1ccc(-c3ccccc3)cc21 (stereo not drawn) [casin] | 96.3 | 97.4 | 97.1 | 106 | 69.1 | 94.7 | 97.6 | 87.5 | 94.7 | 52.4 | 102 | 106 | 106 | 98.9 | 77.7 | 107 | 102 | 105 | 102 | 79 | 106 | 97.4 | 99.4 | 96.3 | 69.8 | 1.1 | 3.4 | 0.9 | 0.5 | 1.9 | > 10 | > 10 | – | – |
| Cc1cc(I)ccc1Nc1c(C(=O)NOCC2CC2)cc(F)c(F)c1F | 97.2 | 100 | 103 | 80.3 | 45.1 | 88.7 | 107 | 94 | 55.5 | 21.1 | 89.6 | 100 | 90.4 | 77 | 52.6 | 100 | 97.1 | 99.8 | 89.6 | 74.7 | 93.3 | 99.5 | 98.3 | 75 | 54.8 | 5.7 | 9.7 | 5.2 | 2.3 | 5.2 | – | – | 1.26 | 0.814 |
| C[C@]12CC[C@@H]3c4ccc(OC(=O)c5ccccc5)cc4CC[C@H]3[C@@H]1CC[C@@H]2O [estradiol-benzoate] | 101 | 96.4 | 98.6 | 94.3 | 88.6 | 104 | 118 | 103 | 105 | 97.8 | – | – | – | – | – | 108 | 105 | 106 | 103 | 99.8 | – | – | – | – | – | 0 | 0 | – | 0 | – | – | > 10 | > 10 | > 10 |
| COc1ccc(C(C)(C)C)cc1CN[C@H]1C2CCN(CC2)[C@H]1C(c1ccccc1)c1ccccc1 [maropitant] | 108 | 104 | 110 | 101 | 1.7 | 107 | 104 | 98.9 | 100 | 11.6 | 100 | 106 | 100 | 101 | 62.6 | 99.5 | 98.9 | 101 | 93.9 | 67.3 | 103 | 96.4 | 101 | 103 | 67.4 | 5.4 | 4.9 | 1.7 | 2.5 | 1.3 | – | – | 3.24 | 3.17 |
| Cc1cc(C)nc(NS(=O)(=O)c2ccc(N)cc2)n1 [sulfamethazine] | – | – | – | – | – | – | – | – | – | – | – | – | – | – | – | – | – | – | – | – | – | – | – | – | – | 0 | 0 | 0 | 0 | – | – | – | – | – |
| C=CC(=O)c1ccc2ccccc2c1 [JAK3-inhibitor-V] | 110 | 97.3 | 111 | 94.8 | 96.6 | 106 | 108 | 98.8 | 110 | 110 | 99.5 | 107 | 99.8 | 104 | 101 | – | – | – | – | – | – | – | – | – | – | 0 | 0 | 0 | – | – | > 10 | – | > 10 | > 10 |
| Cc1cc(Nc2ncnc3ccc(-c4ccc(CNCCS(C)(=O)=O)o4)cc23)ccc1Oc1ccn2ncnc2c1 [HER2-Inhibitor-1] | 122 | 88.4 | 66.1 | 45.5 | 30.5 | 98.4 | 102 | 95.8 | 89.1 | 88.8 | 105 | 106 | 105 | 93.7 | 94.2 | 98.2 | 95.2 | 100 | 91.9 | 87.9 | 102 | 88.5 | 94.8 | 88.4 | 52.7 | 15 | 0.4 | 0 | 0.4 | 4.2 | > 10 | > 10 | 0.124 | > 10 |
| C=CC(C)(C)c1cc(/C=C/C(=O)c2ccc(O)cc2)c(OC)cc1O [licochalcone-A] | 96.1 | 100 | 106 | 98.1 | 91.7 | 99.9 | 100 | 74.4 | 99.2 | 78.4 | 103 | 101 | 90.2 | 98 | 102 | 95.7 | 96.5 | 100 | 95.8 | 88.7 | 92.4 | 83 | 105 | 88 | 70.8 | 0 | 1.5 | 0 | 0.1 | 2.8 | > 10 | > 10 | > 10 | – |
| CCC[C@@H]1C[C@@H](C(=O)N[C@@H]([C@H]2O[C@H](SC)[C@H](OP(=O)(O)O)[C@@H](O)[C@H]2O)[C@H](C)Cl)N(C)C1 [Clindamycin phosphate] | – | – | – | – | – | – | – | – | – | – | – | – | – | – | – | – | – | – | – | – | – | – | – | – | – | 0 | 0 | 0 | 0 | – | – | – | – | – |
| CCCCCCCCOc1ccccc1C(=O)Nc1ccc(C(=O)OCC[N+](C)(CC)CC)cc1 [otilonium] | 97 | 104 | 91.1 | 96.7 | 89.3 | 109 | 96.2 | 108 | 96 | 83.8 | 103 | 97.2 | 106 | 97.8 | 94.1 | 101 | 106 | 98 | 101 | 90.7 | 89.1 | 99.4 | 97 | 97.5 | 74.7 | 0 | 0.7 | 0 | 0 | 1.4 | > 10 | > 10 | > 10 | > 10 |
| C[C@H](N)[C@H](O)c1cccc(O)c1 [metaraminol] | 90.4 | 96.8 | 98.7 | 99.9 | 91.9 | 97.9 | 102 | 100 | 97.2 | 103 | 105 | 101 | 108 | 97.5 | 102 | – | – | – | – | – | – | – | – | – | – | 0 | 0 | 0 | – | – | > 10 | – | > 10 | > 10 |
| COc1ccc(C(=O)c2c(C)n(CCN3CCOCC3)c3ccccc23)cc1 [pravadoline] | – | – | – | – | – | 100 | 99.9 | 108 | 100 | 99.5 | 106 | 107 | 105 | 100 | 95.7 | 92 | 97.4 | 95.5 | 99.7 | 55.5 | 104 | 99.7 | 91.9 | 95.1 | 50.8 | – | 0 | 0 | 2.3 | 3.4 | > 10 | – | – | > 10 |
| C[C@@H]1CCCN1CCc1cc2cc(-c3ccc(C#N)cc3)ccc2o1 [ABT-239] | 95.5 | 96.1 | 106 | 111 | 58.9 | 105 | 92.9 | 94.8 | 90.9 | 75.9 | 89.8 | 94.9 | 92 | 91.2 | 91.8 | 96.3 | 101 | 97.9 | 102 | 87 | 86.8 | 106 | 93.4 | 97.2 | 68.1 | 1.5 | 1.4 | 0 | 0.1 | 1.9 | > 10 | > 10 | – | > 10 |
| CC(C)c1cc2c(cc1S(=O)(=O)O)[C@@]1(C)CCC[C@@](C)(C(=O)O)[C@@H]1CC2 [ecabet] | 109 | 107 | 112 | 110 | 99.5 | 105 | 110 | 93.8 | 112 | 104 | 96.4 | 96.1 | 96.9 | 96.9 | 107 | 96.7 | 93.7 | 99.1 | 95 | 103 | – | – | – | – | – | 0 | 0 | 0 | 0 | – | > 10 | > 10 | > 10 | > 10 |
| N=C(N)N [guanidine] | – | – | – | – | – | 101 | 117 | 101 | 96.2 | 105 | 76.8 | 106 | 82.2 | 110 | 69.3 | 105 | 106 | 105 | 99.9 | 108 | – | – | – | – | – | – | 0 | 0.9 | 0 | – | – | > 10 | – | > 10 |
| CCn1c(-c2nonc2N)nc2c(C#CC(C)(C)O)ncc(OC[C@H]3CCCNC3)c21 | 102 | 98.2 | 92.2 | 69.5 | 73.5 | 94.8 | 98.1 | 96.5 | 94.5 | 99.4 | 96.5 | 96 | 95.5 | 95.1 | 111 | 96.3 | 93.3 | 98.1 | 87.5 | 85.9 | 92.9 | 86.7 | 101 | 72.1 | 69.3 | 6.3 | 0 | 0 | 0.3 | 4.7 | > 10 | > 10 | – | > 10 |
